Experimental data as given in patent EP4759812A1 (Guangzhou Lupeng Pharmaceutical Co., Ltd., priority 2023, dated 2025).
Entries after “also recorded” stand apart in the source; their conditions may differ.

Tests used:
Assay type in all cases: physicochemical
[1] = Stability test in pure water and buffer solution (suspension, XRPD); details: 25°C, stirred 24 h, solid by XRPD
Procedure: The suspensions were stirred at 25°C for 24 h, and filtered to obtain the solids. Samples were taken for XRPD measurement. […]

[2] = Accelerated stability test; details: 40±2°C, 75±5 RH %; for Crystal form: XRPD
[3] = Morphological comparison under polarizing light microscope
Long-term stability test = details: 25±2°C, 60±5 RH %; for Crystal form: XRPD
[4] = Influencing factor stability: high-humidity test; details: Temperature 25°C, relative humidity 92.5±5%; for Purity: HPLC, starting purity: Crystal form VI 99.32%, Amorphous form 98.80%, Crystal form XIII 99.01%; for Crystal form: XRPD
Procedure: (§1) The crystal form results under different conditions were identified by XRPD analysis, and the purity results under different conditions were identified by HPLC analysis.
(§2) The above samples were then taken on days 5, 10, 15, and 30, respectively. Their crystal forms were tested by adopting X-ray powder diffraction (XRPD), and the sample purities were tested by adopting HPLC. […]

[5] = Influencing factor stability: high-temperature test; details: Temperature 60°C; for Purity: HPLC, starting purity: Crystal form VI 99.32%, Amorphous form 98.80%, Crystal form XIII 99.01%; for Crystal form: XRPD
Procedure: as §1, §2

[6] = Dynamic vapor sorption (DVS) experiment; details: for Hygroscopicity: class per Chinese Pharmacopoeia 2010 guidance (25±0.2°C, 80% relative humidity)
[7] = Influencing factor stability: light exposure test; details: Visible light 4500 Lux ± 500 Lux; for Crystal form: ultraviolet light 1.7 W*h/m^2 (25°C, RH 60%±5%), XRPD; for Purity: HPLC, starting purity: Crystal form VI 99.32%, Amorphous form 98.80%, Crystal form XIII 99.01%
Procedure: as §1, §2

With `C=CC(=O)Nc1cc(Nc2nc(-c3ccnc(N4CCn5c(cc6c5CC(C)(C)C6)C4=O)c3CO)cn(C)c2=O)ccc1N1CCN(C2CCOCC2)C[C@@H]1C` [Crystal form VI, (S)-N-(5-((6-(2-(7,7-dimethyl-1-oxo-1,3,4,6,7,8-hexahydro-2H-cyclopenta[4,5]pyrrolo[1,2-a]pyrazin-2-yl)-3-(hydroxymethyl)pyridin-4-yl)-4-methyl-3-oxo-3,4-dihydropyrazin-2-yl)amino)-2-(2-methyl-4-(tetrahydro-2H-pyran-4-yl)piperazin-1-yl)phenyl)acrylamide] the Suspension result ([1]; Pure water) was “Crystal form VI”, the Suspension result ([1]; pH 4.5 buffer solution) was “Crystal form VI” and the Suspension result ([1]; pH 6.8 buffer solution) was “Crystal form VI”. The Purity ([2]; 0 days) was 99.32%, the Crystal form ([2]; 0 days) was “Crystal form VI” and the Purity ([2]; 1 month) was 99.18%. For the same compound, the Crystal form ([2]; 1 month) was “Crystal form VI”, the Purity ([2]; 3 months) was 98.98% and the Crystal form ([2]; 3 months) was “Crystal form VI”. The Purity ([2]; 6 months) was 98.54%, the Crystal form ([2]; 6 months) was “Crystal form VI” and the Crystal form ([2]; 6 months, listed as crystal form VI) was “no change in crystal form”. The “dispersibility and flowability / agglomeration and caking” value ([3]; judged from polarizing light microscope images) was “relatively good dispersibility and flowability”, the crystal morphology ([3]; polarizing light microscope) was “long rod-shaped” and the Purity (Long-term stability test; 0 days) was 99.32%. The Crystal form (Long-term stability test; 0 days) was “Crystal form VI”, the Purity (Long-term stability test; 1 month) was 99.31% and the Crystal form (Long-term stability test; 1 month) was “Crystal form VI”. For the same compound, the Purity (Long-term stability test; 6 months) was 99.35%, the Crystal form (Long-term stability test; 6 months) was “Crystal form VI” and the Purity (Long-term stability test; 12 months) was 99.28%. The Crystal form (Long-term stability test; 12 months) was “Crystal form VI”, the Purity (Long-term stability test; 18 months) was 99.31% and the Crystal form (Long-term stability test; 18 months) was “Crystal form VI”. For the same compound, the Purity (Long-term stability test; 24 months) was 99.30%, the Crystal form (Long-term stability test; 24 months) was “Crystal form VI” and the Crystal form (Long-term stability test; 24 months, listed as crystal form VI) was “no change in crystal form”. The Purity ([4]; 5 days) was 99.35%, the Crystal form ([4]; 5 days) was “Crystal form VI” and the Purity ([4]; 10 days) was 99.35%. The Crystal form ([4]; 10 days) was “Crystal form VI”, the Purity ([4]; 15 days) was 99.32% and the Crystal form ([4]; 15 days) was “Crystal form VI”. The Purity ([4]; 30 days) was 99.31%, the Crystal form ([4]; 30 days) was “Crystal form VI” and the Purity ([5]; 5 days) was 99.31%. For the same compound, the Crystal form ([5]; 5 days) was “Crystal form VI”, the Purity ([5]; 10 days) was 99.25% and the Crystal form ([5]; 10 days) was “Crystal form VI”. The Purity ([5]; 15 days) was 98.96%, the Crystal form ([5]; 15 days) was “Crystal form VI” and the Purity ([5]; 30 days) was 98.72%. The Crystal form ([5]; 30 days) was “Crystal form VI”, the Crystal form ([5]; 30 days, listed as crystal form VI) was “no change in crystal form” and the “Adsorption weight gain (80% RH)” value ([6]; DVS, 80% RH) was 0.79%. The “Adsorption weight gain (95% RH)” value ([6]; DVS, 95% RH) was 1.34%, the Hygroscopicity [6] was “Slightly hygroscopic (hygroscopic weight gain is less than 2% but not less than 0.2%)” and the Hygroscopicity ([6]; listed as crystal form VI) was “slightly hygroscopic; also recorded: slight hygroscopicity”. The Crystal form ([7]; 5 days) was “Crystal form VI”, the Crystal form ([7]; 10 days) was “Crystal form VI” and the Crystal form ([7]; 15 days) was “Crystal form VI”. For the same compound, the Crystal form ([7]; 30 days) was “Crystal form VI”, the Purity ([7]; ultraviolet light 1.7 W*h/m^2, 5 days) was 99.17% and the Purity ([7]; ultraviolet light 1.7 W*h/m^2, 10 days) was 99.23%. It also gave a Purity ([7]; ultraviolet light 1.7 W*h/m^2, 15 days) of 98.71% and a Purity ([7]; ultraviolet light 1.7 W*h/m^2, 30 days) of 98.14%.
